Measured values published in PMC2954496 (Bioorganic & medicinal chemistry, 2010).
Values after ≈ are worked out from the molar mass of the structure shown.

Experiments:
[1] = system: HIV-RT; details: preliminary mechanism of action studies; cited from earlier work
[2] = Water solubility analysis by HPLC; type: physicochemical

| solubility at 1 h [2] | SMILES | Inhibition of HIV-RT DNA-dependent DNA polymerase activity [1] |
| --- | --- | --- |
|  | Cc1cc(=O)oc2c3c(ccc12)OC(C)(C)[C@H](OC(=O)[C@@]12CC[C@@](C)(C(=O)O1)C2(C)C)[C@@H]3OC(=O)[C@@]12CC[C@@](C)(C(=O)O1)C2(C)C [Compound 4-MDCK, 4-methyl DCK] | inhibited |
| 5.2 µg/mL (≈ 7.99 µM) | Cc1cc(=O)c2c(C)cc3c(c2o1)[C@@H](OC(=O)[C@@]12CC[C@@](C)(C(=O)O1)C2(C)C)[C@@H](OC(=O)[C@@]12CC[C@@](C)(C(=O)O1)C2(C)C)C(C)(C)O3 [Compound 5, 3′R,4′R-Di-O-(−)-camphanoyl-2,5,2′,2′-tetramethyldihydropyrano[2,3-f]chromone] |  |
